Measurements taken from PubChem BioAssay (NCI).
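Protocol summary: plate cells (96-well), add compound at 5 concentrations, incubate 48 h, interpolate endpoints linearly. TGI marks complete inhibition of growth.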

How the values were obtained:
Experiment in all cases: NCI-60 cell line screen, 48 h
786-0 renal = tested on: 786-0 renal
A498 renal = tested on: A498 renal
A549 NSCLC = tested on: A549 NSCLC
ACHN renal = tested on: ACHN renal
CCRF-CEM leukemia = tested on: CCRF-CEM leukemia
COLO 205 colon = tested on: COLO 205 colon
DLD-1 colon = tested on: DLD-1 colon
DMS 114 small cell lung = tested on: DMS 114 small cell lung
DMS 273 small cell lung = tested on: DMS 273 small cell lung
EKVX NSCLC = tested on: EKVX NSCLC
HCC-2998 colon = tested on: HCC-2998 colon
HCT-116 colon = tested on: HCT-116 colon
HCT-15 colon = tested on: HCT-15 colon
HL-60(TB) leukemia = tested on: HL-60(TB) leukemia
HOP-18 NSCLC = tested on: HOP-18 NSCLC
HOP-62 NSCLC = tested on: HOP-62 NSCLC
HOP-92 NSCLC = tested on: HOP-92 NSCLC
HT29 colon = tested on: HT29 colon
IGROV1 ovarian = tested on: IGROV1 ovarian
K-562 leukemia = tested on: K-562 leukemia
KM12 colon = tested on: KM12 colon
KM20L2 colon = tested on: KM20L2 colon
LOX IMVI melanoma = tested on: LOX IMVI melanoma
LXFL 529 NSCLC = tested on: LXFL 529 NSCLC
M14 melanoma = tested on: M14 melanoma
M19-MEL melanoma = tested on: M19-MEL melanoma
MALME-3M melanoma = tested on: MALME-3M melanoma
MOLT-4 leukemia = tested on: MOLT-4 leukemia
NCI-H226 lung = tested on: NCI-H226 lung
NCI-H23 lung = tested on: NCI-H23 lung
NCI-H460 lung = tested on: NCI-H460 lung
NCI-H522 lung = tested on: NCI-H522 lung
OVCAR-3 ovarian = tested on: OVCAR-3 ovarian
OVCAR-4 ovarian = tested on: OVCAR-4 ovarian
OVCAR-5 ovarian = tested on: OVCAR-5 ovarian
OVCAR-8 ovarian = tested on: OVCAR-8 ovarian
RPMI-8226 leukemia = tested on: RPMI-8226 leukemia
RXF 393 renal = tested on: RXF 393 renal
SF-268 CNS = tested on: SF-268 CNS
SF-295 CNS = tested on: SF-295 CNS
SF-539 CNS = tested on: SF-539 CNS
SK-MEL-2 melanoma = tested on: SK-MEL-2 melanoma
SK-MEL-28 melanoma = tested on: SK-MEL-28 melanoma
SK-MEL-5 melanoma = tested on: SK-MEL-5 melanoma
SK-OV-3 ovarian = tested on: SK-OV-3 ovarian
SN12C renal = tested on: SN12C renal
SNB-19 CNS = tested on: SNB-19 CNS
SNB-75 CNS = tested on: SNB-75 CNS
SNB-78 CNS = tested on: SNB-78 CNS
SW-620 colon = tested on: SW-620 colon
TK-10 renal = tested on: TK-10 renal
U251 CNS = tested on: U251 CNS
UACC-257 melanoma = tested on: UACC-257 melanoma
UACC-62 melanoma = tested on: UACC-62 melanoma
UO-31 renal = tested on: UO-31 renal
CAKI-1 renal = tested on: CAKI-1 renal
RXF-631 renal = tested on: RXF-631 renal
SR leukemia = tested on: SR leukemia
XF 498 CNS = tested on: XF 498 CNS

Measured: TGI

Cc1cc(=O)[nH]c(CNC(=O)c2cccc(C(=O)NCc3cc(=O)[nH]c(C)n3)c2)n1
not listed: CAKI-1 renal | RXF-631 renal | SR leukemia | XF 498 CNS
> 100 µM: all other assays above
